Test results from BigSolDB 2.1.

## N=C(N)N.O=[N+]([O-])O
In acetone, 278.15 K
  solubility (mole fraction): 0.0003
In acetone, 283.15 K
  solubility (mole fraction): 0.0005
In acetone, 288.15 K
  solubility (mole fraction): 0.0009
In acetone, 293.15 K
  solubility (mole fraction): 0.0016
In acetone, 298.15 K
  solubility (mole fraction): 0.0029
In acetone, 303.15 K
  solubility (mole fraction): 0.0052
In acetone, 308.15 K
  solubility (mole fraction): 0.0092
In acetone, 313.15 K
  solubility (mole fraction): 0.0158
In acetone, 323.15 K
  solubility (mole fraction): 0.0503
In ethanol, 278.05 K
  solubility (mole fraction): 0.003
In ethanol, 283.15 K
  solubility (mole fraction): 0.0037
In ethanol, 288.35 K
  solubility (mole fraction): 0.0043
In ethanol, 293.15 K
  solubility (mole fraction): 0.0051
In ethanol, 298.25 K
  solubility (mole fraction): 0.0062
In ethanol, 303.25 K
  solubility (mole fraction): 0.007
In ethanol, 308.25 K
  solubility (mole fraction): 0.0081
In ethanol, 313.05 K
  solubility (mole fraction): 0.0094
In ethanol, 318.05 K
  solubility (mole fraction): 0.0108
In ethanol, 323.25 K
  solubility (mole fraction): 0.0124
In ethanol, 328.35 K
  solubility (mole fraction): 0.0143
In methanol, 278.25 K
  solubility (mole fraction): 0.0063
In methanol, 283.25 K
  solubility (mole fraction): 0.0075
In methanol, 288.25 K
  solubility (mole fraction): 0.0092
In methanol, 293.25 K
  solubility (mole fraction): 0.0107
In methanol, 298.35 K
  solubility (mole fraction): 0.0126
In methanol, 303.15 K
  solubility (mole fraction): 0.0148
In methanol, 308.35 K
  solubility (mole fraction): 0.0174
In methanol, 313.15 K
  solubility (mole fraction): 0.0198
In methanol, 318.25 K
  solubility (mole fraction): 0.0227
In methanol, 323.35 K
  solubility (mole fraction): 0.0264
In methanol, 328.05 K
  solubility (mole fraction): 0.0305
In n-propanol, 278.25 K
  solubility (mole fraction): 0.0009
In n-propanol, 283.25 K
  solubility (mole fraction): 0.0013
In n-propanol, 288.25 K
  solubility (mole fraction): 0.0017
In n-propanol, 293.15 K
  solubility (mole fraction): 0.002
In n-propanol, 298.35 K
  solubility (mole fraction): 0.0029
In n-propanol, 303.15 K
  solubility (mole fraction): 0.0041
In n-propanol, 308.35 K
  solubility (mole fraction): 0.0048
In n-propanol, 313.15 K
  solubility (mole fraction): 0.0061
In n-propanol, 318.25 K
  solubility (mole fraction): 0.0077
In n-propanol, 323.15 K
  solubility (mole fraction): 0.0092
In n-propanol, 328.05 K
  solubility (mole fraction): 0.012
In water, 278.25 K
  solubility (mole fraction): 0.009
In water, 283.35 K
  solubility (mole fraction): 0.0112
In water, 288.25 K
  solubility (mole fraction): 0.0136
In water, 292.95 K
  solubility (mole fraction): 0.0157
In water, 298.25 K
  solubility (mole fraction): 0.019
In water, 303.15 K
  solubility (mole fraction): 0.0222
In water, 308.35 K
  solubility (mole fraction): 0.0262
In water, 313.05 K
  solubility (mole fraction): 0.0302
In water, 318.25 K
  solubility (mole fraction): 0.0349
In water, 323.25 K
  solubility (mole fraction): 0.0401
In water, 328.35 K
  solubility (mole fraction): 0.0463
In water, 332.85 K
  solubility (mole fraction): 0.0511
